Test results from patent US20260137754A1, “APPLICATION OF A COMBINATION DRUG IN THE TREATMENT OF PATHOGENIC BACTERIAL PERSISTENT INFECTIONS” (priority 2023, published 2026).
In brackets after ≈: the same amount, converted by molar mass. Several values for one entry are separate records, joined by “and”; a condition that tells them apart may be missing. Equal values may be shown once. Read-outs that look alike come from different tables or passages of the source.

Key:
[1] = cited from earlier work
[2] = system: wild-type E. coli BW25113; assay: Minimum inhibitory concentration (MIC); assay type: cell-based, Escherichia coli
[3] = system: wild-type E. coli BW25113; assay: Survival / persistence level (CFU) of stationary-phase culture diluted 1:20 into fresh LB with antibiotic; assay type: cell-based, Escherichia coli; details: for persistence survival level / persistence rate: monotherapy 10 hours, kanamycin 3 MIC, ciprofloxacin 20 MIC, ampicillin 20 MIC, polymyxin B 3 MIC
Procedure: (§1) The proportion of persisting cells in bacterial cultures typically reaches higher levels during the nutrient-depleted stationary phase. To investigate the persistence capacity of the model bacterium Escherichia coli(E. coli) against most bactericidal antibiotics, the standard BW25113 strain with E. coli K12 background was cultured at 37° C. in commercially available LB liquid medium until reaching the stationary phase. The culture was then inoculated at a 1:20 dilution into fresh LB liquid medium containing antibiotics at multiple dilutions of the minimum inhibitory concentration (MIC). Samples were collected after different treatment durations, and residual antibiotics were removed through two centrifugations. After tenfold serial dilution in physiological saline, the cultures were plated on LB agar plates without antibiotics. Survival colony-forming units (CFUs) were counted after two days of incubation, with initial CFU values before antibiotic addition serving as controls to calculate bacterial survival rates and persistence levels using conventional experimental methods. Testing for other bacteria followed the same protocol.
The culture was then incubated at 37° C. with shaking at 160 rpm for 10 hours. […] Each measurement was obtained from at least three independent experiments, with error bars representing the mean±standard deviation.

[4] = system: E. coli hipA7 strain; details: for survival rate / viability: monotherapy 10 hours, kanamycin 3 MIC, ciprofloxacin 20 MIC, ampicillin 20 MIC, polymyxin B 3 MIC, mitomycin C 3 MIC
Procedure: as §1
(§2) Each measurement was obtained from at least three independent experiments, with error bars representing the mean±standard deviation.
as §2, §2

[5] = system: E. coli hipA7 cells; assay: Membrane potential, DiSC3(5) dye, flow cytometry; assay type: cell-based, Escherichia coli; details: 0.9 μg/mL polymyxin B, 20 μg/mL kanamycin, combined or alone; up to 8 hours
Procedure: As represented by the combination antibiotic containing 0.9 μg/mL polymyxin B and 20 μg/mL kanamycin, the cell membrane damage in hipA7 cultures during stress-induced antibiotic killing was assessed. […] Samples were incubated at 37° C. with 160 rpm shaking for 8 hours. During sampling, 2.5 μM DiSC3 (5) was added in the first 10 minutes of each time point, followed by washing to remove the drugs and unbound dye. Flow cytometry was used to measure fluorescence intensity, with 100,000 cells analyzed per sample. […] Representative data from one of the experiments were selected for plotting.

[6] = system: E. coli hipA7 cells; assay: Cell membrane damage, propidium iodide (PI) staining; assay type: cell-based, Escherichia coli; details: single drug
Procedure: Samples were incubated at 37° C. with 160 rpm shaking for 8 hours.
Parallel samples were treated with corresponding concentrations of individual drugs. Samples were collected at 0, 2, and 4 hours, with the addition of 5 μM PI dye 10 minutes prior to each collection time point. After washing with saline to remove antibiotics and extracellular dyes, cellular fluorescence intensity was analyzed by flow cytometry, with 100,000 cells analyzed per sample. The results from three independent experiments were basically the same. Representative data from one of the experiments were selected for plotting.

[7] = clinical dosage guideline 2 mg/kg
[8] = Escherichia coli, BW25113, read-out: MIC

In the case of polymyxin, the average serum concentration [1, 7] is given as “approximately 2.8 μg/mL” and the serum concentration range [1, 7] is given as 680 to 4880 ng/mL.
For `O=C(O)c1cn(C2CC2)c2cc(N3CCNCC3)c(F)cc2c1=O` [ciprofloxacin], the MIC [2, 8] was 0.03 µg/mL (≈ 0.0905 µM), the “persistence survival level / persistence rate” value [3] was 0.001% and the “survival rate / viability” value [4] was “Approximately 10%”.
For `CO[C@@]12[C@H](COC(N)=O)C3=C(C(=O)C(C)=C(N)C3=O)N1C[C@@H]1N[C@@H]12` [mitomycin C], the MIC [2] was 0.8 µg/mL (≈ 2.39 µM).
With polymyxin B the “DiSC3(5) fluorescence signal (membrane potential)” value [5] was “no significant enhancement of DiSC3(5) fluorescence signal”, the MIC [2] was 0.3 µg/mL and the “PI fluorescence (membrane disruption)” value ([6]; after 2 hours) was “majority of cells showed no increase in PI fluorescence”. For the same compound, the “PI fluorescence (membrane disruption)” value ([6]; after 4 hours) was “only a minimal number of cells exhibiting detectable signals”, the “persistence survival level / persistence rate” value [3] was 0.001% and the “survival rate / viability” value [4] was “Approximately 10%”.
For `NC[C@H]1O[C@H](O[C@H]2[C@H](O)[C@@H](O[C@H]3O[C@H](CO)[C@@H](O)[C@H](N)[C@H]3O)[C@H](N)C[C@@H]2N)[C@H](O)[C@@H](O)[C@@H]1O` [kanamycin], the MIC [2, 8] is listed as 8 µg/mL (≈ 16.5 µM), the peak serum concentration ([1]; clinical) is listed as 20 µg/mL and 18 to 20 µg/mL and the viability decreased ([3]; kanamycin 24 μg/mL (3 MIC), 10 hours) is listed as 100,000 fold. The “persistence survival level / persistence rate” value [3] was 0.001%, the “survival rate, times higher than that of wild-type E. coli” value ([4]; 3 MIC kanamycin, 10 hours) was 10,000 times and the “survival rate / viability” value [4] was 10%.
For `CC1(C)S[C@@H]2[C@H](NC(=O)[C@H](N)c3ccccc3)C(=O)N2[C@H]1C(=O)O` [ampicillin], the MIC [2, 8] was 6 µg/mL (≈ 17.2 µM), the “persistence survival level / persistence rate” value [3] was 0.001% and the “survival rate / viability” value [4] was “Approximately 10%”.
